Drawing on PubChem BioAssay (NCI), this text covers TGI for one compound.

SMILES strings stand for the structures.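 Five concentrations, 48 hours, 96-well plates. TGI marks complete inhibition of growth.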

Common to all, as to test: NCI tumour cell line growth inhibition, 48 h
In experiment [1] the test system is RPMI-8226 leukemia.
Experiment [2] deals with SK-OV-3 ovarian.
The test system of experiment [3] is CAKI-1 renal.
Experiment [4] relates to OVCAR-5 ovarian.
Experiment [5] concerns HT29 colon.
Experiment [6] has as its system MOLT-4 leukemia.
Experiment [7] relates to DU-145 prostate.
For experiment [8], the system named is K-562 leukemia.
Experiment [9] has as its system KM12 colon.
Experiment [10] deals with SW-620 colon.
The test system of experiment [11] is UACC-62 melanoma.
Experiment [12] concerns NCI/ADR-RES ovarian.
In experiment [13] the test system is U251 CNS.
Experiment [14] has as its system SF-539 CNS.
Experiment [15] relates to SF-268 CNS.
For experiment [16], the system named is SNB-75 CNS.
In experiment [17] the test system is CCRF-CEM leukemia.
In experiment [18] the test system is MDA-MB-435.
Experiment [19] deals with SNB-19 CNS.
The test system of experiment [20] is SK-MEL-5 melanoma.

Take `CCCC(=O)Nc1cc(/C=C/C(=O)N2CC(CCl)c3c2cc(O)c2[nH]cc(C)c32)n(C)c1` (stereo not given): the TGI in [1] was 1.54 nM; in experiment [2], 5.63 nM; in experiment [3] it was less than 0.025 nM; in experiment [4], 28.6 nM; in experiment [5] it was 28.5 nM; in experiment [6], 12.1 nM. Moreover, the TGI is 0.817 nM in experiment [7]; greater than 250 nM in experiment [8]; greater than 250 nM in [9]; greater than 250 nM in experiment [10]; less than 0.025 nM in [11]; 3.72 nM in [12]. The TGI in experiment [13] is 44.9 nM; in experiment [14], less than 0.025 nM; in [15], less than 0.025 nM; in experiment [16] it was less than 0.025 nM; in [17], 0.155 nM; in [18] it was less than 0.025 nM. The TGI in experiment [19] was 6.08 nM; in experiment [20], less than 0.025 nM.
